Laboratory results: patent publication US8293764B2, “Compositions and methods for disruption of BRCA2-Rad51 interaction” (The Regents of the University of California, priority 2004, dated 2012)
“Also recorded” adds a separate entry of the source.

Legend:
Type in all cases: cell-based
[1] = system: g-H2AX foci in MCF-7 cells; experiment: IR-induced g-H2AX foci formation (immunostaining); conditions: 20 μM IBR2, 20 Gy
Description: Since interaction between BRCA2 and Rad51 appears to be crucial for the formation of IR-induced Rad51 foci, it was contemplated that IBR2 may mimic BRC repeats to disrupt the BRCA2-Rad51 interaction and to thereby diminish the IR-induced Rad51 foci formation. To test this possibility, the number of the MCF-7 cells that formed IR-induced Rad51 foci was measured after IBR2 treatment. […] To test whether this effect applies to other molecules involved in DSB repair, the inventors then examined the IR-induced foci formation of g-H2AX, which is histone H2AX phosphorylated at serine 139 by ATM for the recruitment of NBS1, 53BP and BRCA1, but not Rad51.
Immunostaining Rad51 and g-H2AX foci: MCF-7 cells were treated with 20 μM IBR2 for 7 or 19 hours and then g-irradiated at 20 Gy. Cells were incubated for an additional 5 hours with 20 μM IBR2, then fixed with 4% paraformaldehyde in PBS containing 0.5% Triton X-100. The fixed cells were incubated with a-Rad51 antibody (mAb 1F5) or a-g-H2AX antibody (Upstate). Rad51 and g-H2AX foci positive cells were subsequently counted as described (Chen et al., 1999).

[2] = system: Rad51 in MCF-7 cells; experiment: Rad51 stability assay with cyclohexamide; conditions: with cyclohexamide; control cells 5.5 hours
Description: To examine the impact of IBR2 on Rad51 protein expression, IBR2 treated MCF-7 cells was examined by straight western blot probed with a panel of antibodies against BRCA2, Rad51, Rad50, p84 and Rb. […] Consistent with our FACS analysis (FIG. 4A), the hypo-phosphorylated form of Rb, a marker for G1 phase, was the major form observed in the later time points, further confirming that IBR2 arrests cells at G1 phase (FIG. 4A). It has been reported that BRCA2 level is cell cycle dependent, which expresses low in G1 phase and peaks at G1/S boundary. Therefore the decreased level of BRCA2 in IBR2 treated cells may be due to G1 phase arrest. Different from BRCA2 protein, Rad51 protein is expressed constant throughout the cell cycle in MCF-7 cells (data not shown). Therefore, loss of Rad51 protein may be the direct effect of IBR2 treatment instead of the consequence of G1 arrest. […]
Western blot analysis: Cells were treated with […] or 50 μg/ml cycloheximide (CHX) or 1 μM MG132 and harvested at different time points for western blot analysis. […] The intensity of bands was quantified by densitometry using Labworks 4.5 software. The relative value of the band intensity was calculated with respect to that of untreated sample after normalization with the p84 signal.

[3] = system: MCF-7 cells; experiment: Fate of S phase cells after hydroxyurea synchronization (BrdU uptake, mitotic index, viable cells)
Description: To further examine the fate of cells in S phase upon IBR2 treatment, MCF-7 cells were synchronized at G1/S transition by hydroxyurea treatment and then released to allow S phase entry by washing out the reagents. These cells were treated with 20 μM IBR2 and BrdU, and BrdU uptake was measured for DNA synthesis, as well as the mitotic index and the number of viable cells during an 18-hour period. […] Moreover, the number of mock treated cells doubled at the completion of M phase, while the number of IBR2 treated cells decreased to around 50%.
(§1) Cell culture, cell synchronization, BrdU labeling and determination of mitotic index: Breast cancer cell lines and MEF cell lines were cultured in high-glucose Dulbecco modified Eagle medium containing 10% fetal bovine serum. MCF-10A cells were cultured as described previously (Debnath et al., 2003). Cell synchronization at M phase was achieved by treatment with 0.1 μg/ml nocodazole for 8 hours. Cell synchronization at G1/S boundary was achieved by treatment with 1 mM hydroxyurea for 17 hours, 9 hours of release and again with 1 mM hydroxyurea for 14 hours. For BrdU labeling, cells were incubated with BrdU for 30 minutes and fixed for BrdU immunostaining using a BrdU labeling kit (Amersham Biosciences). For determination of mitotic index, cells were fixed in 4% formaldehyde in PBS containing 0.1 μg/ml DAPI for 30 minutes at room temperature and examined by fluorescence microscopy. 500-1000 nuclei per sample were counted to determine the number of M phase cells which only includes prometaphase, metaphase, anaphase and telophase.

[4] = system: MCF-7 cells; experiment: S phase entry (BrdU) after nocodazole synchronization; conditions: cells synchronized at M phase by nocodazole, re-plated
Description: To test whether IBR2 treated cells are arrested at G1 and thus fail to enter S phase, MCF-7 cells were synchronized at M phase by nocodazole treatment and then re-plated to allow the entry to G1 phase. At different time points, cells were pulse labeled with BrdU to monitor S phase entry.
as §1

[5] = system: breast cancer cell lines (MDA-MB-231, MCF-7, MDA-MB-468, SKBR3 and MDA-MB-435); experiment: Cell growth curves, trypan blue exclusion assay; conditions: 0, 5, 10, 20 μM; 1-5 days
Description: The inventors examined the effects of IBR2 on the growth and viability of a panel of breast cancer cell lines. Five exponentially growing breast cancer cell lines (MDA-MB-231, MCF-7, MDA-MB-468, SKBR3 and MDA-MB-435) were incubated with IBR2 at various concentrations (0, 5, 10 and 20 μM) for various periods of time (1, 2, 3, 4 and 5 days). The viable cell numbers were then counted by trypan blue exclusion assay. […] We also examined the effects of IBR2 on the growth and viability of cultured breast cancer cells (MDA-MB-468, MDA-MB-435, MCF-7, T47D) using the 3-(4,5-dimethylthiazol-2-yl)-2,5-diphenyltetrazolium bromide (MTT) assay.
Cell proliferation assay and clonogenic survival assays: To obtain cell growth curves, 1×10^4 cells were seeded in 12-well plate for 24 hours. Cells were then treated, in duplicate, with various concentrations of IBR2 in the presence of 0.4% DMSO. The viable cells were counted by trypan blue exclusion assay daily. MTT assay was performed as previously described (Alley et al., 1988).

[6] = system: MCF-7 cells; experiment: Western blot of protein levels; conditions: 20 mM IBR2, time dependent
Description: To examine the impact of IBR2 on Rad51 protein expression, IBR2 treated MCF-7 cells was examined by straight western blot probed with a panel of antibodies against BRCA2, Rad51, Rad50, p84 and Rb. […] Consistent with our FACS analysis (FIG. 4A), the hypo-phosphorylated form of Rb, a marker for G1 phase, was the major form observed in the later time points, further confirming that IBR2 arrests cells at G1 phase (FIG. 4A). It has been reported that BRCA2 level is cell cycle dependent, which expresses low in G1 phase and peaks at G1/S boundary. Therefore the decreased level of BRCA2 in IBR2 treated cells may be due to G1 phase arrest. Different from BRCA2 protein, Rad51 protein is expressed constant throughout the cell cycle in MCF-7 cells (data not shown). Therefore, loss of Rad51 protein may be the direct effect of IBR2 treatment instead of the consequence of G1 arrest. To test whether IBR2 decreases Rad51 levels by destabilization, the inventors performed a stability assay by adding cyclohexamide (CHX) to inhibit de novo protein synthesis. […] Therefore, the inventors contemplate that IBR2 treated MCF-7 cells were arrested at G1, blocked at M phase entry, and died at S/G2 phase.
Western blot analysis: Cells were treated with 20 mM IBR2 or 50 μg/ml cycloheximide (CHX) or 1 μM MG132 and harvested at different time points for western blot analysis. Cells resuspended in Lysis 250 buffer were subjected to three freeze/thaw cycles (liquid nitrogen/37° C.) and then centrifuged at 14,000 rpm for 2 minutes at room temperature. After measuring protein concentration, equal amount of total cellular proteins were subjected to SDS-PAGE and immunoblot analyses were performed as described previously (Chen et al., 1999). Antibodies used were: Rad51 (rabbit 5952); BRCA2 (rabbit PC146, Oncogene); Rb (mAb 11D7); Rad50 (mAb 13B3) and p84 (mAb 5E10). The intensity of bands was quantified by densitometry using Labworks 4.5 software. The relative value of the band intensity was calculated with respect to that of untreated sample after normalization with the p84 signal.

O=S(=O)(Cc1ccccc1)N1C=Cc2ccccc2C1c1c[nH]c2ccccc12 (centres unmarked) [IBR2, 2-(benzylsulfonyl)-1-(1H-indol-3-yl)-1,2-dihydroisoquinoline]
IR-induced g-H2AX foci formation [1]: no effect on g-H2AX foci formation | half-life of Rad51 [2]: 1.5 h | DNA synthesis (BrdU uptake), S phase progression ([3]; 20 μM IBR2, 18-hour period): does not interfere with S phase progression | mitotic index (M phase entry) ([3]; 20 μM IBR2, 18-hour period): no or little IBR2 treated cells entered M phase | viability at 20 µM ([3]; Homo sapiens, MCF7, 20 μM IBR2, at completion of M phase, read-out: number of viable cells): ~50% | S phase entry (BrdU positive cells) [4]: completely arrested at G1 and failed to enter S phase | growth of breast cancer cell lines (viable cell numbers) [5]: retarded growth of breast tumor cells in culture; also recorded: significantly inhibited the growth | BRCA2 protein level [6]: decreased dramatically | Rad50 protein level [6]: remained constant | Rad51 protein level [6]: decreased dramatically | p84 protein level [6]: remained constant
